# In PubChem BioAssay AID1918939 (Molecular Pharmacology Branch, DTP, NCI, 2023):
# pIC50: −log10 of the molar value.
# Tested on: 653999-131-R-J2-PDC complex spheroid viability
# Experiment: Anticancer human tumor 653999-131-R-J2-PDC patient-derived lung adenocarcinoma cell line growth inhibition
# Conditions: for pIC50: curve of first compound; for viability, T/C: stronger effect = lower value
# Summary of the method: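 Complex spheroids of tumor cells with HUVEC and human MSCs, exposed to iadademstat combined with other agents. Each agent tested in half-log steps from near clinical Cmax (else 10 microM top), DMSO ≤0.25%.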
# [1] = second compound 0.1 µM, first compound 0.0316 µM
# [2] = second compound 0.1 µM, first compound 0.1 µM
# [3] = second compound 0.1 µM, first compound 0.316 µM
# [4] = second compound 0.1 µM, first compound 1 µM
# [5] = second compound 0.316 µM, first compound 0.0316 µM
# [6] = second compound 0.316 µM, first compound 0.1 µM
# [7] = second compound 0.316 µM, first compound 0.316 µM
# [8] = second compound 0.316 µM, first compound 1 µM
# [9] = second compound 1 µM, first compound 0.0316 µM
# [10] = second compound 1 µM, first compound 0.1 µM
# [11] = second compound 1 µM, first compound 0.316 µM
# [12] = second compound 1 µM, first compound 1 µM
# [13] = second compound 3.16 µM, first compound 0.0316 µM
# [14] = second compound 3.16 µM, first compound 0.1 µM
# [15] = second compound 3.16 µM, first compound 0.316 µM
# [16] = second compound 3.16 µM, first compound 1 µM
# [17] = second compound 10 µM, first compound 0.0316 µM
# [18] = second compound 10 µM, first compound 0.1 µM
# [19] = second compound 10 µM, first compound 0.316 µM
# [20] = second compound 10 µM, first compound 1 µM
# [21] = second compound 0.1 µM, first compound 0.00316 µM
# [22] = second compound 0.1 µM, first compound 0.01 µM
# [23] = second compound 0.316 µM, first compound 0.00316 µM
# [24] = second compound 0.316 µM, first compound 0.01 µM
# [25] = second compound 1 µM, first compound 0.00316 µM
# [26] = second compound 1 µM, first compound 0.01 µM
# [27] = second compound 3.16 µM, first compound 0.00316 µM
# [28] = second compound 3.16 µM, first compound 0.01 µM
# [29] = second compound 10 µM, first compound 0.00316 µM
# [30] = second compound 10 µM, first compound 0.01 µM
# [31] = second compound 0.1 µM, first compound 0.00949 µM
# [32] = second compound 0.1 µM, first compound 0.03 µM
# [33] = second compound 0.1 µM, first compound 0.0949 µM
# [34] = second compound 0.1 µM, first compound 0.3 µM
# [35] = second compound 0.1 µM, first compound 0.949 µM
# [36] = second compound 0.1 µM, first compound 3 µM
# [37] = second compound 0.316 µM, first compound 0.00949 µM
# [38] = second compound 0.316 µM, first compound 0.03 µM
# [39] = second compound 0.316 µM, first compound 0.0949 µM
# [40] = second compound 0.316 µM, first compound 0.3 µM
# [41] = second compound 0.316 µM, first compound 0.949 µM
# [42] = second compound 0.316 µM, first compound 3 µM
# [43] = second compound 1 µM, first compound 0.00949 µM
# [44] = second compound 1 µM, first compound 0.03 µM
# [45] = second compound 1 µM, first compound 0.0949 µM
# [46] = second compound 1 µM, first compound 0.3 µM
# [47] = second compound 1 µM, first compound 0.949 µM
# [48] = second compound 1 µM, first compound 3 µM
# [49] = second compound 3.16 µM, first compound 0.00949 µM
# [50] = second compound 3.16 µM, first compound 0.03 µM
# [51] = second compound 3.16 µM, first compound 0.0949 µM
# [52] = second compound 3.16 µM, first compound 0.3 µM
# [53] = second compound 3.16 µM, first compound 0.949 µM
# [54] = second compound 3.16 µM, first compound 3 µM
# [55] = second compound 10 µM, first compound 0.00949 µM
# [56] = second compound 10 µM, first compound 0.03 µM
# [57] = second compound 10 µM, first compound 0.0949 µM
# [58] = second compound 10 µM, first compound 0.3 µM
# [59] = second compound 10 µM, first compound 0.949 µM
# [60] = second compound 10 µM, first compound 3 µM
# 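Further: spheroids exposed to agents for seven days before readout.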
smiles,measurement,setting,value
CC1(C)CCC(CN2CCN(c3ccc(C(=O)NS(=O)(=O)c4ccc(NCC5CCOCC5)c([N+](=O)[O-])c4)c(Oc4cnc5[nH]ccc5c4)c3)CC2)=C(c2ccc(Cl)cc2)C1 + NC1CCC(NC2CC2c2ccccc2)CC1,pIC50,second compound 0.1 µM,5.03
same,pIC50,second compound 0.316 µM,5.07
same,pIC50,second compound 1 µM,5.06
same,pIC50,second compound 3.16 µM,5.11
same,pIC50,second compound 10 µM,< 5.00
same,"viability, T/C",[1],93.5%
same,"viability, T/C",[2],82.4%
same,"viability, T/C",[3],86.9%
same,"viability, T/C",[4],100%
same,"viability, T/C","second compound 0.1 µM, first compound 3.16 µM",94.8%
same,"viability, T/C","second compound 0.1 µM, first compound 10 µM",47.3%
same,"viability, T/C",[5],76.8%
same,"viability, T/C",[6],89.7%
same,"viability, T/C",[7],97.7%
same,"viability, T/C",[8],92%
same,"viability, T/C","second compound 0.316 µM, first compound 3.16 µM",92.2%
same,"viability, T/C","second compound 0.316 µM, first compound 10 µM",43.2%
same,"viability, T/C",[9],77%
same,"viability, T/C",[10],83.4%
same,"viability, T/C",[11],97.2%
same,"viability, T/C",[12],96.5%
same,"viability, T/C","second compound 1 µM, first compound 3.16 µM",73.7%
same,"viability, T/C","second compound 1 µM, first compound 10 µM",46.8%
same,"viability, T/C",[13],97.9%
same,"viability, T/C",[14],88.1%
same,"viability, T/C",[15],102%
same,"viability, T/C",[16],94.2%
same,"viability, T/C","second compound 3.16 µM, first compound 3.16 µM",74.5%
same,"viability, T/C","second compound 3.16 µM, first compound 10 µM",43.2%
same,"viability, T/C",[17],89%
same,"viability, T/C",[18],84.2%
same,"viability, T/C",[19],87.4%
same,"viability, T/C",[20],87.3%
same,"viability, T/C","second compound 10 µM, first compound 3.16 µM",78.1%
same,"viability, T/C","second compound 10 µM, first compound 10 µM",50%
COc1cc(Nc2ncc3c(n2)-c2ccc(Cl)cc2C(c2c(F)cccc2OC)=NC3)ccc1C(=O)O + NC1CCC(NC2CC2c2ccccc2)CC1,pIC50,second compound 0.1 µM,< 6.00
same,pIC50,second compound 0.316 µM,< 6.00
same,pIC50,second compound 1 µM,< 6.00
same,pIC50,second compound 3.16 µM,< 6.00
same,pIC50,second compound 10 µM,< 6.00
same,"viability, T/C",[21],78.7%
same,"viability, T/C",[22],89.2%
same,"viability, T/C",[1],74.2%
same,"viability, T/C",[2],78.5%
same,"viability, T/C",[3],73.7%
same,"viability, T/C",[4],76.1%
same,"viability, T/C",[23],85.4%
same,"viability, T/C",[24],72.8%
same,"viability, T/C",[5],63.9%
same,"viability, T/C",[6],68.1%
same,"viability, T/C",[7],71.3%
same,"viability, T/C",[8],75.6%
same,"viability, T/C",[25],76.6%
same,"viability, T/C",[26],84.3%
same,"viability, T/C",[9],78.6%
same,"viability, T/C",[10],69.2%
same,"viability, T/C",[11],61.9%
same,"viability, T/C",[12],74.9%
same,"viability, T/C",[27],92.2%
same,"viability, T/C",[28],73.9%
same,"viability, T/C",[13],79.2%
same,"viability, T/C",[14],65.6%
same,"viability, T/C",[15],79.7%
same,"viability, T/C",[16],72%
same,"viability, T/C",[29],92.9%
same,"viability, T/C",[30],81.4%
same,"viability, T/C",[17],71.7%
same,"viability, T/C",[18],71.2%
same,"viability, T/C",[19],60.9%
same,"viability, T/C",[20],79.7%
Cn1ncnc1C1c2n[nH]c(=O)c3cc(F)cc(c23)NC1c1ccc(F)cc1 (stereo not given) + NC1CCC(NC2CC2c2ccccc2)CC1,pIC50,second compound 0.1 µM,< 7.00
same,pIC50,second compound 0.316 µM,< 7.00
same,pIC50,second compound 1 µM,< 7.00
same,pIC50,second compound 3.16 µM,< 7.00
same,pIC50,second compound 10 µM,< 7.00
same,"viability, T/C","second compound 0.1 µM, first compound 0.000316 µM",86.9%
same,"viability, T/C","second compound 0.1 µM, first compound 0.001 µM",86.9%
same,"viability, T/C",[21],85.6%
same,"viability, T/C",[22],73%
same,"viability, T/C",[1],80.9%
same,"viability, T/C",[2],71.4%
same,"viability, T/C","second compound 0.316 µM, first compound 0.000316 µM",85.4%
same,"viability, T/C","second compound 0.316 µM, first compound 0.001 µM",82.5%
same,"viability, T/C",[23],82.1%
same,"viability, T/C",[24],87.2%
same,"viability, T/C",[5],73.9%
same,"viability, T/C",[6],86%
same,"viability, T/C","second compound 1 µM, first compound 0.000316 µM",95.6%
same,"viability, T/C","second compound 1 µM, first compound 0.001 µM",81.3%
same,"viability, T/C",[25],82.9%
same,"viability, T/C",[26],74.9%
same,"viability, T/C",[9],75.9%
same,"viability, T/C",[10],78.1%
same,"viability, T/C","second compound 3.16 µM, first compound 0.000316 µM",94.6%
same,"viability, T/C","second compound 3.16 µM, first compound 0.001 µM",91.8%
same,"viability, T/C",[27],91.1%
same,"viability, T/C",[28],87.3%
same,"viability, T/C",[13],76.7%
same,"viability, T/C",[14],72.1%
same,"viability, T/C","second compound 10 µM, first compound 0.000316 µM",96.9%
same,"viability, T/C","second compound 10 µM, first compound 0.001 µM",99.4%
same,"viability, T/C",[29],97.6%
same,"viability, T/C",[30],84.5%
same,"viability, T/C",[17],72%
same,"viability, T/C",[18],78.2%
NS(=O)(=O)OCC1CC(n2ccc3c(NC4CCc5ccccc54)ncnc32)CC1O (stereo not given) + NC1CCC(NC2CC2c2ccccc2)CC1,pIC50,second compound 0.1 µM,< 5.52
same,pIC50,second compound 0.316 µM,< 5.52
same,pIC50,second compound 1 µM,< 5.52
same,pIC50,second compound 3.16 µM,< 5.52
same,pIC50,second compound 10 µM,< 5.52
same,"viability, T/C",[31],97.5%
same,"viability, T/C",[32],80.8%
same,"viability, T/C",[33],106%
same,"viability, T/C",[34],107%
same,"viability, T/C",[35],54.7%
same,"viability, T/C",[36],61.1%
same,"viability, T/C",[37],97.8%
same,"viability, T/C",[38],81.6%
same,"viability, T/C",[39],105%
same,"viability, T/C",[40],114%
same,"viability, T/C",[41],55.6%
same,"viability, T/C",[42],50.7%
same,"viability, T/C",[43],94.4%
same,"viability, T/C",[44],92.8%
same,"viability, T/C",[45],91.2%
same,"viability, T/C",[46],116%
same,"viability, T/C",[47],60.5%
same,"viability, T/C",[48],56.2%
same,"viability, T/C",[49],105%
same,"viability, T/C",[50],98.7%
same,"viability, T/C",[51],100%
same,"viability, T/C",[52],105%
same,"viability, T/C",[53],58.6%
same,"viability, T/C",[54],59.2%
same,"viability, T/C",[55],116%
same,"viability, T/C",[56],101%
same,"viability, T/C",[57],105%
same,"viability, T/C",[58],118%
same,"viability, T/C",[59],63.7%
same,"viability, T/C",[60],54.2%
O=C(C=Cc1cccc(S(=O)(=O)Nc2ccccc2)c1)NO + NC1CCC(NC2CC2c2ccccc2)CC1,pIC50,second compound 0.1 µM,6.36
same,pIC50,second compound 0.316 µM,6.27
same,pIC50,second compound 1 µM,6.29
same,pIC50,second compound 3.16 µM,6.30
same,pIC50,second compound 10 µM,6.35
same,"viability, T/C",[31],81.9%
same,"viability, T/C",[32],97.9%
same,"viability, T/C",[33],108%
same,"viability, T/C",[34],56.1%
same,"viability, T/C",[35],28.6%
same,"viability, T/C",[36],3.54%
same,"viability, T/C",[37],89.3%
same,"viability, T/C",[38],82.6%
same,"viability, T/C",[39],91.4%
same,"viability, T/C",[40],70.3%
same,"viability, T/C",[41],29.3%
same,"viability, T/C",[42],3.12%
same,"viability, T/C",[43],96.4%
same,"viability, T/C",[44],100%
same,"viability, T/C",[45],88.3%
same,"viability, T/C",[46],71.6%
same,"viability, T/C",[47],26.2%
same,"viability, T/C",[48],2.35%
same,"viability, T/C",[49],98.4%
same,"viability, T/C",[50],83.1%
same,"viability, T/C",[51],92.4%
same,"viability, T/C",[52],61.9%
same,"viability, T/C",[53],32.3%
same,"viability, T/C",[54],2.77%
same,"viability, T/C",[55],95.4%
same,"viability, T/C",[56],96%
same,"viability, T/C",[57],101%
same,"viability, T/C",[58],60.3%
same,"viability, T/C",[59],25.8%
same,"viability, T/C",[60],3.12%
